Laboratory results: patent publication US20090312361A1, “NOVEL PHARMACEUTICAL COMPOSITIONS FOR TREATING ACQUIRED CHRONIC PAIN AND ASSOCIATED DYSPHORIA” (priority 2004, published 2009)

Assays:
[1] = cited from earlier work; for accumulation: during multiple dose treatment with tramadol
pain = conditions: cited from earlier work
[2] = system: neurogenic pain in the distal lower limbs, feet and digits; lower back pain; test: Treatment of patient with severe back pain (Patient 1, case report); conditions: Patient 1, oral tramadol at doses up to 500 mg per day as needed
child = conditions: 4 mg/kg of tramadol to a child; cited from earlier work
μ-opiate receptors = μ-opiate receptors (Homo sapiens, UniProt P35372); conditions: cited from earlier work
[3] = cited from earlier work
[4] = system: neuropathic pain (secondary peripheral distal neuropathy of both feet and legs); test: Treatment of patient suffering from diabetic neuropathy (Patient 2, case report); type: in vivo, human
Method: Patient 2 was a person with a history of untreated diabetes. Secondary peripheral distal neuropathy of both feet and legs was among the patients' clinical complaints. […] The patient gradually self escalated the dosage of aspirin to 10 to 12×325 mg tablets per day. The patient then presented after self treatment for several weeks at the emergency room complaining of gastric pain and blood in the vomitus. […] The patient was stabilized through dietary intervention with antacids and released after several days.

μ-opiate receptors, sequence (P35372 whole entry): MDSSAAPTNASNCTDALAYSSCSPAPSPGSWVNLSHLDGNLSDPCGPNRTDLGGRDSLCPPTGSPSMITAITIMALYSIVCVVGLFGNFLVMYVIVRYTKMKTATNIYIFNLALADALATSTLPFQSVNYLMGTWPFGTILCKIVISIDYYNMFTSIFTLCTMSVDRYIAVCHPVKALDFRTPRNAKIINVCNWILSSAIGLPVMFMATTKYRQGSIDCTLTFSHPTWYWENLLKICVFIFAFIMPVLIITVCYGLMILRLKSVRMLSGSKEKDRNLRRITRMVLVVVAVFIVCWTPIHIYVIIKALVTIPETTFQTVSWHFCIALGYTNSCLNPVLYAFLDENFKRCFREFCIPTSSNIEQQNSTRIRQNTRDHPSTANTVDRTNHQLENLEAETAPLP

SMILES: CN(C)C[C@H]1CCCC[C@]1(O)c1cccc(O)c1 [M1 derivative, O-desmethyltramadol]
- accumulation [1]: approximately 2 fold
- analgesic potency relative to the parent drug (pain; relative to tramadol): at least twice the analgesic potency of the parent drug

SMILES: COc1cccc(C2(O)CCCCC2CN(C)C)c1 (racemic) [tramadol, (+/−)-trans (RR,SS)-2-[(di-methylamino)methyl]-1-(3-methoxyphenyl)cyclohexanol]
- time to peak serum concentrations ([1]; after oral administration): ≤ 2 h
- accumulation [1]: approximately 2 fold
- duration of the analgesic effect (pain; after a single oral dose of tramadol 100 mg): about 6 hours
- reported pain range [2]: tolerable
- side effects [2]: no significant side effects
- adverse effect after inadvertent administration (child): seizure activity
- affinity for μ-opiate receptors, fold less than codeine (μ-opiate receptors; relative to codeine): 10 fold
- affinity for μ-opiate receptors, fold less than d-propoxyphene (μ-opiate receptors; relative to d-propoxyphene): 100 fold
- affinity for μ-opiate receptors compared with dextromethorphan (μ-opiate receptors; relative to dextromethorphan): equivalent to dextromethorphan
- affinity for μ-opiate receptors, fold less than morphine (μ-opiate receptors; relative to morphine): 6.000 fold

SMILES: Cn1c(=O)c2c(ncn2C)n(C)c1=O [caffeine, 3,7-dihydro-1,3,7-trimethyl-1H-purine-2,6-dione]
- time to maximal plasma concentrations ([3]; after oral, rectal or parenteral administration): ≤ 1 h
- half-life in plasma ([3]; in vivo): 3 to 7 h

SMILES: CC(=O)Oc1ccccc1C(=O)O [aspirin, acetylsalicylic acid]
- diagnosis after self treatment ([4]; Patient 2, 10 to 12×325 mg tablets per day for several weeks): gastro-esophageal erosion and hemorrhage
- control of neuropathic pain ([4]; Patient 2, treatment with aspirin and other NSAIDs): only marginally effective
